Results reported in the supplement of paper PMC10702517.
± gives the standard deviation.

Test: chemical recovery by SPE of plasma after PDMS sampling; higher = better extraction
Settings: pooled human plasma; extraction method: HLB SPE of plasma after PES; equilibration time (d): 6
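Wherever chemical recovery by SPE of plasma after PDMS sampling is given: over 400 spiked chemicals quantified by LC-HRMS or GC-HRMS via internal standard calibration, recovery relative to spike mix added to unspiked plasma extract to correct matrix effects.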
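Wherever chemical recovery from spiked human plasma is given: plasma spiked with over 400 chemicals, quantified by LC-HRMS and GC-HRMS via internal standard calibration against matrix-matched unspiked plasma extracts plus spike mix.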

Row | SMILES | chemical recovery by SPE of plasma [%]
1 | COc1ccccc1Oc1c(NS(=O)(=O)c2ccc(C(C)(C)C)cc2)nc(-c2ncccn2)nc1OCCO [Bosentan] | 42.2 ± 6.5
2 | CCCc1nc2c(C)cc(-c3nc4ccccc4n3C)cc2n1Cc1ccc(-c2ccccc2C(=O)O)cc1 [Telmisartan] | 43.5 ± 2.1
3 | O=C1Nc2ccc(Cl)cc2C(c2ccccc2)=NC1O (configuration not stated) [Oxazepam] | 27.7 ± 1.9
4 | CCCCCCCCn1sccc1=O [2-Octyl-4-isothiazolin-3-one] | 0.459 ± 0.03
5 | Nc1ccc2c(n1)[nH]c1ccccc12 [2-Amino-9H-pyrido[2,3-b]indole (AalphaC)] | 9.97 ± 0.52
6 | CCNc1nc(NCC)nc(SC)n1 [Simetryn] | 3.34 ± 0.47
7 | Cc1nc2n(c(=O)c1CCN1CCC(c3noc4cc(F)ccc34)CC1)CCCC2 [Risperidone] | 2.32 ± 0.59
8 | CSc1nnc(C(C)(C)C)c(=O)n1N [Metribuzin] | 10.4 ± 1.8
9 | Cc1cc(O)cc(C)c1[S+](C)[O-] (configuration not stated) [Methiocarb-sulfoxide phenol] | 61.6 ± 2.4
10 | CC1(C)CC(N)CC(C)(CN)C1 (configuration not stated) [Isophorone diamine] | 1.22 ± 0.75
11 | Cc1nc(N(C)C)nc(OC(=O)N(C)C)c1C [Pirimicarb] | 4.09 ± 0.28
12 | CCCN(CCC)c1c([N+](=O)[O-])cc(S(N)(=O)=O)cc1[N+](=O)[O-] [Oryzalin] | 27.7 ± 1.7
13 | CC(C)Nc1nc(N)nc(Cl)n1 [Desethylatrazine] | 19 ± 2.4
14 | CN[C@H]1CC[C@@H](c2ccc(Cl)c(Cl)c2)c2ccccc21 [Sertraline] | 0.0944 ± 0.088
15 | c1ccc2ncccc2c1 [Quinoline] | 0.0105 ± 0.018
16 | O=C(NC(=O)c1c(F)cccc1F)Nc1ccc(Cl)cc1 [Diflubenzuron] | 4.73 ± 0.29
17 | O=c1ccc2ccccc2[nH]1 [2-Hydroxyquinoline] | 24 ± 2.1
18 | C1=Cc2ccccc2Nc2ccccc21 [Iminostilbene] | 2.5 ± 1.3
19 | Brc1ccc(Oc2c(Br)cc(Br)cc2Br)c(Br)c1 [BDE100] | 0.324 ± 0.56
20 | Fc1ccc([C@@H]2CCNC[C@H]2COc2ccc3c(c2)OCO3)cc1 [Paroxetine] | 2.27 ± 0.16
21 | COCCN(C(=O)C(=O)O)c1c(C)cccc1C [Dimethachlor OA] | 61.4 ± 2.8
22 | Oc1cc(Cl)ccc1Oc1ccc(Cl)cc1Cl [Triclosan] | 20.2 ± 3.3
23 | O=P(OCCCl)(OCCCl)OCCCl [Tris(2-chloroethyl)phosphate] | 9.84 ± 0.88
24 | CN1CCN(C)C1=O [1,3-Dimethyl-2-imidazolidinone] | 8.78 ± 4.2
25 | CN(C)CCOC(c1ccccc1)c1ccccc1 [Diphenhydramine] | 0.236 ± 0.039
26 | CN1C(=O)CC[C@H]1c1cccnc1 [Cotinine] | 4.13 ± 1.4
27 | Cc1nc2ccccc2s1 [2-Methylbenzothiazole] | 0.0669 ± 0.12
28 | CN/C(=N\[N+](=O)[O-])NCc1cnc(Cl)s1 [Clothianidin] | 57 ± 2.6
29 | O=C1NCCN1Cc1ccc(Cl)nc1 [Imidacloprid-urea] | 39.3 ± 1.7
30 | c1ccc2c(c1)=c1ccc3c4c(ccc=2c14)=c1ccccc1=3 [Indeno(1,2,3-cd)fluoranthene] | 0.409 ± 0.71

Test: chemical recovery from spiked human plasma; higher = better extraction
Settings: pooled human plasma; extraction method: PES+SPE (3 d PDMS equilibration then HLB SPE)

Row | SMILES | chemical recovery [%]
31 | CCCNCCOc1c(Cl)cc(Cl)cc1Cl [Prochloraz BTS403-48] | 1.17 ± 0.37
32 | COC(=O)Nc1nc2cc(C(=O)c3ccccc3)ccc2[nH]1 [Mebendazole] | 71.2 ± 11
33 | Cc1cccc(C)c1N(Cn1cccn1)C(=O)C[S+](C)[O-] (configuration not stated) [Metazachlor BH 479-11] | 46 ± 4.5
34 | CCCc1nc2c(C)cc(-c3nc4ccccc4n3C)cc2n1Cc1ccc(-c2ccccc2C(=O)O)cc1 [Telmisartan] | 55.8 ± 1.8
35 | O=C1Nc2ccc(Cl)cc2C(c2ccccc2)=NC1O (configuration not stated) [Oxazepam] | 41.3 ± 2.3
36 | Nc1ccc2c(n1)[nH]c1ccccc12 [2-Amino-9H-pyrido[2,3-b]indole (AalphaC)] | 17 ± 2.6
37 | CSc1nnc(C(C)(C)C)c(=O)n1N [Metribuzin] | 49.7 ± 7.4
38 | Cc1nc(N(C)C)nc(OC(=O)N(C)C)c1C [Pirimicarb] | 55.6 ± 8
39 | CC(C)Nc1nc(N)nc(Cl)n1 [Desethylatrazine] | 61.1 ± 5.3
40 | CN[C@H]1CC[C@@H](c2ccc(Cl)c(Cl)c2)c2ccccc21 [Sertraline] | 1.09 ± 0.4
41 | O=c1ccc2ccccc2[nH]1 [2-Hydroxyquinoline] | 57.1 ± 5.5
42 | C1=Cc2ccccc2Nc2ccccc21 [Iminostilbene] | 10.8 ± 4.1
43 | Brc1ccc(Oc2c(Br)cc(Br)cc2Br)c(Br)c1 [BDE100] | 67.4 ± 0.92
44 | Fc1ccc([C@@H]2CCNC[C@H]2COc2ccc3c(c2)OCO3)cc1 [Paroxetine] | 3.9 ± 1.1
45 | Oc1cc(Cl)ccc1Oc1ccc(Cl)cc1Cl [Triclosan] | 49.8 ± 4.3
46 | O=P(OCCCl)(OCCCl)OCCCl [Tris(2-chloroethyl)phosphate] | 52.1 ± 4.5
47 | CN(C)CCOC(c1ccccc1)c1ccccc1 [Diphenhydramine] | 0.391 ± 0.13
48 | CN1C(=O)CC[C@H]1c1cccnc1 [Cotinine] | 23.3 ± 6.5
49 | CN/C(=N\[N+](=O)[O-])NCc1cnc(Cl)s1 [Clothianidin] | 54 ± 1.1
50 | O=C1NCCN1Cc1ccc(Cl)nc1 [Imidacloprid-urea] | 51.2 ± 4.7

Same assay, conditions: pooled human plasma; extraction method: SPE only (HLB 96-well)

Row | SMILES | chemical recovery [%]
51 | CCCNCCOc1c(Cl)cc(Cl)cc1Cl [Prochloraz BTS403-48] | 47.1 ± 2
52 | CCOP(=O)(OCC)OCC [Triethylphosphate] | 18.9 ± 3.4
53 | COC(=O)Nc1nc2cc(C(=O)c3ccccc3)ccc2[nH]1 [Mebendazole] | 45 ± 2.8
54 | Cc1cccc(C)c1N(Cn1cccn1)C(=O)C[S+](C)[O-] (configuration not stated) [Metazachlor BH 479-11] | 50.3 ± 0.97
55 | CCCc1nc2c(C)cc(-c3nc4ccccc4n3C)cc2n1Cc1ccc(-c2ccccc2C(=O)O)cc1 [Telmisartan] | 50.8 ± 2.5
56 | O=C1Nc2ccc(Cl)cc2C(c2ccccc2)=NC1O (configuration not stated) [Oxazepam] | 38 ± 3.2
57 | CCCCCCCCn1sccc1=O [2-Octyl-4-isothiazolin-3-one] | 29.4 ± 2.2
58 | Nc1ccc2c(n1)[nH]c1ccccc12 [2-Amino-9H-pyrido[2,3-b]indole (AalphaC)] | 28.5 ± 2.1
59 | CCNc1nc(NCC)nc(SC)n1 [Simetryn] | 41.6 ± 3.2
60 | CSc1nnc(C(C)(C)C)c(=O)n1N [Metribuzin] | 49 ± 2.9
61 | Cc1cc(O)cc(C)c1[S+](C)[O-] (configuration not stated) [Methiocarb-sulfoxide phenol] | 45.3 ± 8.7
62 | Cc1nc(N(C)C)nc(OC(=O)N(C)C)c1C [Pirimicarb] | 34.3 ± 1.5
63 | CC(C)Nc1nc(N)nc(Cl)n1 [Desethylatrazine] | 45.4 ± 3.1
64 | CN[C@H]1CC[C@@H](c2ccc(Cl)c(Cl)c2)c2ccccc21 [Sertraline] | 71.9 ± 9.3
65 | c1ccc2ncccc2c1 [Quinoline] | 16.5 ± 4.6
66 | O=C(NC(=O)c1c(F)cccc1F)Nc1ccc(Cl)cc1 [Diflubenzuron] | 29.8 ± 6.3
67 | O=c1ccc2ccccc2[nH]1 [2-Hydroxyquinoline] | 43 ± 3.2
68 | C1=Cc2ccccc2Nc2ccccc21 [Iminostilbene] | 44.1 ± 7
69 | Brc1ccc(Oc2c(Br)cc(Br)cc2Br)c(Br)c1 [BDE100] | 3.57 ± 1.4
70 | Fc1ccc([C@@H]2CCNC[C@H]2COc2ccc3c(c2)OCO3)cc1 [Paroxetine] | 63.1 ± 3.8
71 | COCCN(C(=O)C(=O)O)c1c(C)cccc1C [Dimethachlor OA] | 28.1 ± 6.4
72 | Oc1cc(Cl)ccc1Oc1ccc(Cl)cc1Cl [Triclosan] | 34.5 ± 1.1
73 | O=P(OCCCl)(OCCCl)OCCCl [Tris(2-chloroethyl)phosphate] | 47.4 ± 2.1
74 | CN1CCN(C)C1=O [1,3-Dimethyl-2-imidazolidinone] | 7.04 ± 5.9
75 | CN(C)CCOC(c1ccccc1)c1ccccc1 [Diphenhydramine] | 44.7 ± 3
76 | CN1C(=O)CC[C@H]1c1cccnc1 [Cotinine] | 6.77 ± 2.8
77 | Cc1nc2ccccc2s1 [2-Methylbenzothiazole] | 0.149 ± 0.18
78 | CN/C(=N\[N+](=O)[O-])NCc1cnc(Cl)s1 [Clothianidin] | 55.1 ± 3.7
79 | O=C1NCCN1Cc1ccc(Cl)nc1 [Imidacloprid-urea] | 43.2 ± 9.1

Same assay, conditions: pooled human plasma; extraction method: SPE only (HLB 96-well), PES comparison experiment

Row | SMILES | chemical recovery [%]
80 | CCCNCCOc1c(Cl)cc(Cl)cc1Cl [Prochloraz BTS403-48] | 46.2 ± 5.1
81 | CCOP(=O)(OCC)OCC [Triethylphosphate] | 16.6 ± 7.5
82 | CCCCCCCCCCCC(=O)N(CCO)CCO [Lauryl diethanolamide] | 51.6 ± 7.8
